Results as given in PubChem BioAssay (NCI).
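Five concentrations, 48 hours, 96-well plates. At the TGI there is no net growth.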

Tests used:
Experiment in all cases: inhibition of tumour cell growth, NCI panel, 48 h
[1] = tested on: RXF 393 renal
[2] = tested on: SF-539 CNS
[3] = tested on: EKVX NSCLC
[4] = tested on: SNB-19 CNS
[5] = tested on: A498 renal
[6] = tested on: SK-MEL-5 melanoma
[7] = tested on: A549 NSCLC
[8] = tested on: MDA-N
[9] = tested on: SN12C renal
[10] = tested on: SK-MEL-2 melanoma
[11] = tested on: RPMI-8226 leukemia
[12] = tested on: SR leukemia
[13] = tested on: NCI-H226 lung
[14] = tested on: SK-OV-3 ovarian
[15] = tested on: PC-3 prostate
[16] = tested on: OVCAR-8 ovarian
[17] = tested on: 786-0 renal
[18] = tested on: MCF7 breast
[19] = tested on: NCI/ADR-RES ovarian
[20] = tested on: MDA-MB-231 breast
[21] = tested on: M14 melanoma
[22] = tested on: BT-549 breast
[23] = tested on: HOP-62 NSCLC
[24] = tested on: COLO 205 colon
[25] = tested on: HCT-116 colon
[26] = tested on: OVCAR-5 ovarian
[27] = tested on: IGROV1 ovarian
[28] = tested on: K-562 leukemia
[29] = tested on: TK-10 renal
[30] = tested on: DU-145 prostate
[31] = tested on: SK-MEL-28 melanoma
[32] = tested on: CAKI-1 renal
[33] = tested on: MDA-MB-435
[34] = tested on: UO-31 renal
[35] = tested on: HCT-15 colon
[36] = tested on: UACC-62 melanoma
[37] = tested on: MOLT-4 leukemia
[38] = tested on: SF-295 CNS
[39] = tested on: T-47D breast
[40] = tested on: NCI-H23 lung
[41] = tested on: NCI-H522 lung
[42] = tested on: HS 578T breast
[43] = tested on: OVCAR-4 ovarian
[44] = tested on: UACC-257 melanoma
[45] = tested on: SNB-75 CNS
[46] = tested on: ACHN renal
[47] = tested on: OVCAR-3 ovarian
[48] = tested on: SF-268 CNS
[49] = tested on: HOP-92 NSCLC
[50] = tested on: CCRF-CEM leukemia
[51] = tested on: HL-60(TB) leukemia
[52] = tested on: MALME-3M melanoma
[53] = tested on: U251 CNS
[54] = tested on: LOX IMVI melanoma
[55] = tested on: HT29 colon
[56] = tested on: NCI-H460 lung
[57] = tested on: KM12 colon
[58] = tested on: SW-620 colon
[59] = tested on: HCC-2998 colon

Work on `COc1ccc(-c2nnc(-c3ccncc3)o2)cc1` yielded a TGI [1] of over 100 µM, a TGI [2] of over 100 µM and a TGI [3] of over 100 µM. The TGI [4] was over 100 µM, the TGI [5] was over 100 µM and the TGI [6] was over 100 µM. The TGI [7] was over 100 µM, the TGI [8] was over 100 µM and the TGI [9] was over 100 µM. For the same compound, the TGI [10] was over 100 µM, the TGI [11] was over 100 µM and the TGI [12] was over 100 µM. The TGI [13] was over 100 µM, the TGI [14] was over 100 µM and the TGI [15] was over 100 µM. The TGI [16] was over 100 µM, the TGI [17] was over 100 µM and the TGI [18] was over 100 µM. The TGI [19] was over 100 µM, the TGI [20] was over 100 µM and the TGI [21] was over 100 µM. The TGI [22] was over 100 µM, the TGI [23] was over 100 µM and the TGI [24] was over 100 µM. For the same compound, the TGI [25] was over 100 µM, the TGI [26] was over 100 µM and the TGI [27] was over 100 µM. It also gave a TGI [28] of over 100 µM, a TGI [29] of over 100 µM and a TGI [30] of over 100 µM. It also gave a TGI [31] of over 100 µM, a TGI [32] of over 100 µM and a TGI [33] of over 100 µM. For the same compound, the TGI [34] was over 100 µM, the TGI [35] was over 100 µM and the TGI [36] was over 100 µM. It also gave a TGI [37] of over 100 µM, a TGI [38] of over 100 µM and a TGI [39] of over 100 µM. The TGI [40] was over 100 µM, the TGI [41] was over 100 µM and the TGI [42] was over 100 µM. For the same compound, the TGI [43] was over 100 µM, the TGI [44] was over 100 µM and the TGI [45] was over 100 µM. It also gave a TGI [46] of over 100 µM, a TGI [47] of over 100 µM and a TGI [48] of over 100 µM. For the same compound, the TGI [49] was over 100 µM, the TGI [50] was over 100 µM and the TGI [51] was over 100 µM. For the same compound, the TGI [52] was over 100 µM, the TGI [53] was over 100 µM and the TGI [54] was over 100 µM. For the same compound, the TGI [55] was over 100 µM.
`COC(=O)c1c(O)ccc2c1c1c(n2Cc2ccccc2OC)C(=O)c2ccccc2C1` showed a TGI [56] of over 100 µM, a TGI [1] of 88.1 µM and a TGI [2] of over 100 µM. For the same compound, the TGI [4] was over 100 µM, the TGI [5] was over 100 µM and the TGI [57] was over 100 µM. The TGI [6] was over 100 µM, the TGI [7] was over 100 µM and the TGI [8] was over 100 µM. For the same compound, the TGI [9] was 74.9 µM, the TGI [10] was over 100 µM and the TGI [11] was 72.2 µM. For the same compound, the TGI [12] was over 100 µM, the TGI [13] was over 100 µM and the TGI [14] was over 100 µM. For the same compound, the TGI [15] was 78.8 µM, the TGI [16] was over 100 µM and the TGI [17] was over 100 µM. For the same compound, the TGI [18] was over 100 µM, the TGI [58] was over 100 µM and the TGI [19] was over 100 µM. For the same compound, the TGI [20] was over 100 µM, the TGI [21] was over 100 µM and the TGI [22] was over 100 µM. For the same compound, the TGI [23] was over 100 µM, the TGI [24] was 30 µM and the TGI [25] was over 100 µM. The TGI [27] was over 100 µM, the TGI [28] was over 100 µM and the TGI [29] was over 100 µM. For the same compound, the TGI [30] was over 100 µM, the TGI [31] was over 100 µM and the TGI [32] was over 100 µM. The TGI [33] was over 100 µM, the TGI [34] was over 100 µM and the TGI [35] was over 100 µM. It also gave a TGI [36] of over 100 µM, a TGI [37] of over 100 µM and a TGI [39] of over 100 µM. The TGI [40] was over 100 µM, the TGI [42] was over 100 µM and the TGI [43] was 87.9 µM. For the same compound, the TGI [44] was over 100 µM, the TGI [45] was over 100 µM and the TGI [47] was over 100 µM. It also gave a TGI [48] of over 100 µM, a TGI [50] of 81.2 µM and a TGI [51] of over 100 µM. For the same compound, the TGI [52] was over 100 µM, the TGI [53] was over 100 µM and the TGI [54] was over 100 µM. For the same compound, the TGI [55] was over 100 µM.
With `O=C(O)CN(CC(=O)O)Cc1ccn(-c2cccc(-n3ccc(CN(CC(=O)O)CC(=O)O)n3)n2)n1` the TGI [56] was over 100 µM, the TGI [1] was over 100 µM and the TGI [2] was over 100 µM. It also gave a TGI [3] of over 100 µM, a TGI [4] of over 100 µM and a TGI [57] of over 100 µM. The TGI [6] was over 100 µM, the TGI [7] was over 100 µM and the TGI [8] was over 100 µM. For the same compound, the TGI [9] was over 100 µM, the TGI [10] was over 100 µM and the TGI [11] was over 100 µM. For the same compound, the TGI [12] was over 100 µM, the TGI [13] was over 100 µM and the TGI [14] was over 100 µM. For the same compound, the TGI [15] was over 100 µM, the TGI [16] was over 100 µM and the TGI [17] was over 100 µM. For the same compound, the TGI [18] was over 100 µM, the TGI [58] was over 100 µM and the TGI [19] was over 100 µM. It also gave a TGI [20] of over 100 µM, a TGI [21] of over 100 µM and a TGI [22] of over 100 µM. It also gave a TGI [23] of over 100 µM, a TGI [24] of over 100 µM and a TGI [25] of over 100 µM. For the same compound, the TGI [26] was over 100 µM, the TGI [27] was over 100 µM and the TGI [29] was over 100 µM. For the same compound, the TGI [30] was over 100 µM, the TGI [31] was over 100 µM and the TGI [32] was over 100 µM. The TGI [33] was over 100 µM, the TGI [34] was over 100 µM and the TGI [35] was over 100 µM. For the same compound, the TGI [36] was over 100 µM, the TGI [37] was over 100 µM and the TGI [38] was over 100 µM. It also gave a TGI [39] of over 100 µM, a TGI [40] of over 100 µM and a TGI [41] of over 100 µM. For the same compound, the TGI [42] was over 100 µM, the TGI [44] was over 100 µM and the TGI [45] was over 100 µM. It also gave a TGI [46] of over 100 µM, a TGI [47] of over 100 µM and a TGI [59] of over 100 µM. It also gave a TGI [48] of over 100 µM, a TGI [49] of over 100 µM and a TGI [51] of over 100 µM. For the same compound, the TGI [52] was over 100 µM, the TGI [53] was over 100 µM and the TGI [55] was over 100 µM.
